According to publication PMC9368227, “Investigation of Radiotracer Metabolic Stability In Vitro with CYP-Overexpressing Hepatoma Cell Lines” (Cells, 2022):

What was measured:
[1] = Radiotracer incubation in buffer only (control, without any cell line), radio-TLC; format: in vitro ADME; details: reference incubation without any cell lines
Method: HepG2 cells were cultured in DMEM GlutaMax (Gibco, Paisley, UK) with 10% fetal calf serum (FCS) and with selective antibiotics (penicillin/streptomycin for wildtype, Zeocin (InvivoGen, San Diego, CA, USA) for CYP1A2, and Blasticidin (Gibco, Carlsbad, CA, USA) for CYP2C19 and CYP3A4 cultures). As a negative control, cultures of CHO cultivated in Ham’s F-12 medium (Gibco) with 10% FCS and 2 mM glutamine were added for the radiotracer experiments. Cells were handled under a laminar flow hood (Thermo Scientific^TM Safe 2020, Langenselbold, Germany) and were split once or twice a week by trypsinization. Cell cultures were stored horizontally in a humidified incubator (Heracell240i) at 37 °C and 5% CO2. During the time of experimental work, the utilized cell lines were regularly checked for mycoplasma. Cells were seeded in duplicates into a 96-well plate (CellStar®) with a density of 3 × 10^5 cells/well and cultured until the next day at 37 °C and 5% CO2. Cell density was determined with a cell counter (CASY® Model TT from Schärfe System, Reutlingen, Germany). Before the addition of substrates, cells were washed twice with Krebs–Henseleit buffer (KHB). The HEPES-supplemented Krebs–Henseleit buffer (pH 7.4, KHB) was freshly prepared using HEPES (5.95 g/L), D-glucose (2.0 g/L), magnesium sulfate (0.141 g/L), potassium dihydrogenphosphate (0.16 g/L), potassium chloride (0.35 g/L), sodium chloride (6.9 g/L), calcium chloride dihydrate (0.373 g/L), and sodium bicarbonate (2.1 g/L), followed by adjustment to pH 7.4 with NaOH. […]
Incubations with radiotracer compounds were conducted, on the one hand, with radioactive ^18F-labeled compounds alone (time dependency) and, on the other hand, in the presence of 50 µM nonradioactive reference (carrier addition). For the investigation of a time-dependent metabolite formation, 2 µL aliquots were withdrawn from the supernatant, directly spotted onto the TLC plate, and analyzed as described above. […]

HepG2 CYP1A2 = test: Competitive coincubation of [18F]1 with competitors, HepG2 CYP1A2; details: 1 h; competitor 1 or 10 µM
Method: Radio thin-layer chromatography (radio-TLC) was carried out on reversed-phase TLC plates (ALUGRAM RP-18W/UV254 from Macherey-Nagel, Düren, Germany) with a mobile phase of 45% ACN in water containing 0.1% trifluoroacetic acid. The samples (2 µL) were spotted onto the TLC plate. The line of origin and the front line were labeled with 1/5 of the sample activity concentration. To track the Rf value of the intact radiotracer, each TLC was spotted with the intact tracer as reference in the middle. Detection of the activity signals was achieved after 10–30 min development on radioluminographic imaging plates (FUJIFILM, Tokyo, Japan) and subsequent readout with Fuji BAS 5000® or Amersham™ Typhoon™ from GE Healthcare (Uppsala, Sweden). The resulting chromatographic profile was analyzed and integrated with the help of AIDA Image Analysis Software (version 5.1). For data depiction, the fraction of each species (intact radiotracer, metabolite, [^18F]fluoride) was plotted.
Incubations were conducted for up to 2 h in a 96-well plate in KHB with a total incubation volume of 50 µL and an ethanol concentration of 0.4%. For the incubation with radiotracers, an activity of 100–200 kBq/well at the start of the experiment was used.
Our last interest within this study was to test if the tracer itself could function as an indicator for the conversion of other substrates acting via inhibition of or competition with the CYP enzymes. In this regard, alternative substrates were added to the incubation mixtures with [^18F]1. The investigated substrates covered testosterone, caffeine, progesterone, compound 3, tebufelone, and RWJ63556 [44] (10 µM for all substances). Furthermore, the influence of testosterone on the metabolic turnover of [^18F]1 was investigated over a concentration range of 1–50 µM.
Figure 7 Coincubation of [^18F]1 and different competitors with (A) HepG2 CYP1A2 and (B) HepG2 CYP2C19. […] Each competitor/inhibitor was incubated with [^18F]1 for 1 h followed by radio-TLC analysis. Activity concentrations of 94–197 kBq/well (1.9–3.9 MBq/mL) were used at start of experiment, which correspond to a concentration of 120–125 nM. Statistical analysis performed with Dunnett’s multiple comparison (post hoc test) according to the intact tracer amount (* p < 0.05; *** p < 0.001; **** p < 0.0001; n = 4).

[2H]C([2H])([18F])c1cc(-c2ccc(C)cc2)n(-c2ccc(S(C)(=O)=O)cc2)n1 [[^18F]2, 3-([D2, ^18F]fluoromethyl)-1-[4-(methylsulfonyl)phenyl]-5-(p-tolyl)-1H-pyrazole]
Defluorination without additional enzymes in the incubation buffer (KHB) [1]: to a minor extent

Cc1ccc(-c2cc(CCF)nn2-c2ccc(S(C)(=O)=O)cc2)cc1 [compound 3]
Effect of coincubation on metabolic profile / intact [18F]1 (in words) (HepG2 CYP1A2): slightly increased the intact tracer amount
